Experimental findings from patent US9918931B2, “Method for providing a customized skin care product to a customer” (L'OREAL, priority 2016, dated 2018) are described below.

The nature of this data set: Solubility of active ingredients in base oil composition. Format: physicochemical. As to conditions: active ingredient in base oil composition; loading without asterisk.

On to `O=C(O)c1ccccc1O` [Salicylic Acid, reference compound], for which the “Loading (wt %), soluble (not marked *)” value turned out to be 3%.
